The structures appear in SMILES notation.

The test system of the assay is KB. Briefly: Cytotoxicity against human KB cells after 24 hrs by MTT assay. Type of assay: functional, cell-based.
The term IC50 denotes the concentration that gives 50% inhibition. High values mean a need for much substance, low ones inhibition by little substance. `CC1=C[C@H]2OC(=O)[C@@]3(C)CCC[C@@](C)([C@@H]23)[C@H]1CC(=O)c1ccoc1` [HYPOPURIN A] gave a 50% inhibitory concentration (IC50) of 9.4 µM.
In the case of `CC1=C[C@H]2OC3OC(=O)[C@@]4(C)CCC[C@@]3([C@@H]24)[C@H]1CC(=O)c1ccoc1` [HYPOPURIN B] it was more than 100 µM.
As to `C[C@@]12C=C[C@@H]3[C@]4(CCC[C@]3(C)C(=O)OC4O1)[C@H]2CC(=O)c1ccoc1` (some centres undefined) [HYPOPURIN C], the IC50 was more than 100 µM.
As for `CC1=C[C@H]2OC(=O)[C@@]3(C)CCC[C@@](C)([C@@H]23)[C@H]1CCC1=CCOC1=O` [HYPOPURIN D], the figure is more than 100 µM.

Source of the values: ChEMBL document CHEMBL1148960, “Furanolabdane diterpenes from Hypoestes purpurea” (J Nat Prod, 2004).
